From ChEMBL document CHEMBL1201862, “PubChem BioAssay data set” (2004)
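These data come from cells grown in 96-well plates and exposed to compound for 48 hours at five concentrations. GI50 is the concentration that inhibits growth by half.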 Activity calls are given as the source filed them. Rule as the data show it: active = GI50 up to about 1.1 µM and inactive = higher.

Key:
Experiment in all cases: growth of human tumour cells (NCI), 48 h
SNB-78 = system: SNB-78
OVCAR-5 = system: OVCAR-5
KM12 = system: KM12
SF-539 = system: SF-539
SK-MEL-28 = system: SK-MEL-28
RXF 393 = system: RXF 393
COLO 205 = system: COLO 205
HOP-18 = system: HOP-18
A549 = system: A549
NCI-H460 = system: NCI-H460
DMS-273 = system: DMS-273
IGROV-1 = system: IGROV-1
786-0 = system: 786-0
HOP-62 = system: HOP-62
K562 = system: K562
EKVX = system: EKVX
OVCAR-3 = system: OVCAR-3
SR = system: SR
HCT-15 = system: HCT-15
UACC-257 = system: UACC-257
HCT-116 = system: HCT-116
TK-10 = system: TK-10
CCRF-CEM = system: CCRF-CEM
DMS-114 = system: DMS-114
SK-OV-3 = system: SK-OV-3
HCC 2998 = system: HCC 2998
UO-31 = system: UO-31
MOLT-4 = system: MOLT-4
KM-20L2 = system: KM-20L2
ACHN = system: ACHN
DLD-1 = system: DLD-1
CAKI-1 = system: CAKI-1
OVCAR-8 = system: OVCAR-8
SNB-75 = system: SNB-75
SW-620 = system: SW-620
M14 = system: M14
SK-MEL-2 = system: SK-MEL-2
Malme-3M = system: Malme-3M
LOX IMVI = system: LOX IMVI
SN12C = system: SN12C
U-251 = system: U-251
UACC-62 = system: UACC-62
A498 = system: A498
HT-29 = system: HT-29
OVCAR-4 = system: OVCAR-4
SF-268 = system: SF-268
LXFL 529 = system: LXFL 529
SK-MEL-5 = system: SK-MEL-5
HOP-92 = system: HOP-92
SNB-19 = system: SNB-19
NCI-H23 = system: NCI-H23
HL-60 = system: HL-60
RPMI-8226 = system: RPMI-8226
SF-295 = system: SF-295
NCI-H226 = system: NCI-H226
M19-MEL = system: M19-MEL
NCI-H522 = system: NCI-H522

CCC1(O)C(=O)OCc2c1cc1n(c2=O)Cc2c-1nc1ccccc1c2OC (configuration not stated)
GI50 (SNB-78): 2130 nM (inactive)
GI50 (OVCAR-5): 71.1 nM (active)
GI50 (KM12): 167 nM (active)
GI50 (SF-539): < 10 nM (active)
GI50 (SK-MEL-28): 320 nM (active)
GI50 (RXF 393): < 13.6 nM (active)
GI50 (COLO 205): 378 nM (active)
GI50 (HOP-18): 372 nM (active)
GI50 (A549): < 12.7 nM (active)
GI50 (NCI-H460): < 10 nM (active)
GI50 (DMS-273): < 10 nM (active)
GI50 (IGROV-1): 174 nM (active)
GI50 (786-0): < 10 nM (active)
GI50 (HOP-62): < 10 nM (active)
GI50 (K562): < 30.5 nM (active)
GI50 (EKVX): 2910 nM (inactive)
GI50 (OVCAR-3): 257 nM (active)
GI50 (SR): < 10 nM (active)
GI50 (HCT-15): 117 nM
GI50 (UACC-257): 57.5 nM (active)
GI50 (HCT-116): 45.3 nM (active)
GI50 (TK-10): 3520 nM (inactive)
GI50 (CCRF-CEM): < 10 nM (active)
GI50 (DMS-114): < 11.7 nM (active)
GI50 (SK-OV-3): 38.6 nM (active)
GI50 (HCC 2998): 218 nM (active)
GI50 (UO-31): < 22.1 nM (active)
GI50 (MOLT-4): < 10 nM (active)
GI50 (KM-20L2): 51.2 nM (active)
GI50 (ACHN): < 10 nM (active)
GI50 (DLD-1): 488 nM (active)
GI50 (CAKI-1): < 10 nM (active)
GI50 (OVCAR-8): 19.4 nM (active)
GI50 (SNB-75): < 15.6 nM (active)
GI50 (SW-620): < 10 nM (active)
GI50 (M14): < 17.6 nM (active)
GI50 (SK-MEL-2): 2160 nM (inactive)
GI50 (Malme-3M): 150 nM (active)
GI50 (LOX IMVI): < 10 nM (active)
GI50 (SN12C): < 10 nM (active)
GI50 (U-251): < 10 nM (active)
GI50 (UACC-62): < 10 nM (active)
GI50 (A498): 51.3 nM (active)
GI50 (HT-29): 61 nM (active)
GI50 (OVCAR-4): 187 nM (active)
GI50 (SF-268): < 10 nM (active)
GI50 (LXFL 529): 434 nM (active)
GI50 (SK-MEL-5): 18.4 nM (active)
GI50 (HOP-92): 106 nM (active)
GI50 (SNB-19): < 10 nM (active)
GI50 (NCI-H23): < 12.1 nM (active)
GI50 (HL-60): < 10 nM (active)
GI50 (RPMI-8226): < 21.2 nM (active)
GI50 (SF-295): < 10 nM (active)
GI50 (NCI-H226): < 10 nM (active)
GI50 (M19-MEL): 43.8 nM (active)
GI50 (NCI-H522): 24.2 nM (active)
